Data reported in US20230413819A1, “METHODS FOR CONTROLLING FLEA AND TICK INFESTATIONS IN A MAMMAL” (In the Bowl Animal Health, Inc., priority 2021, published 2023).

How the values were obtained:
Ctenocephalides felis = assay: Efficacy of spinosyn per os to dogs against Ctenocephalides felis, comb counts of live adult fleas (Example 2); assay type: in vivo; conditions: for percent reduction in live adult flea counts: by the day 14 comb count
From the text: (§1) Methods: A pool of 40 dogs are to be preliminarily infested with ˜100 unfed adult C. felis in order to produce a pool of dogs that can suitably sustain a reliable infestation rate of approximately 50% of live fleas over a 48-hour period. The dogs with the highest live flea counts are to be randomly allocated to 4 treatment groups (6 dogs per group) based on their pre-treatment flea counts from experimental infestations. The first treatment group is to be the control group and groups 2-4 are to be the test groups.
The dogs are to be housed individually during the study period and are to be fed a commercial dry dog food ration with ad libitum access to water.
Dogs in the control group are not to receive a spinosyn or any other flea control treatment. Each dog in test groups 2-4 is to be offered its daily ration (dry food) and the individual doses of liquid formulation are to be administered after the individual dog has eaten at least 25% of its total daily ration. After receiving the dose of a spinosyn the dogs are to be allowed to continue eating. This mimics incorporating the spinosyn in feed. Each dog in test groups 2-4 and the control group is to be experimentally infested with 100 unfed adult fleas on test days −1, 5, 12, 19, 28 and 35. Comb counts for live adult fleas are to be conducted on days 2, 7, 14, 21, 30 and 37. The final experimental infestation is to occur five days after the last daily dose of spinosyn.

C. felis = assay: Efficacy of spinosyn in medicated feed dosed at 0.5 mg/kg, comb counts of live adult fleas (Example 3); assay type: in vivo; conditions: dogs
From the text: as §1, with “pool of dogs are” for “pool of 40 dogs are”, “pool of 18 dogs that” for “pool of dogs that”, “allocated to 3 groups (6” for “allocated to 4 treatment groups (6”, “and groups 2-3 are to” for “and groups 2-4 are to”
The dogs are to be housed individually during the study period and are to have ad libitum access to water.
There is to be an initial acclimation period of at least 4 days during which dogs in test groups 2 and 3 are to be transitioned from a standard certified commercial chow to an unmedicated version of the daily feed. During the acclimation period, the dogs are to be allowed 1 hour to consume the feed, after which the dogs' acceptance of the feed will be observed and recorded.
Dogs in the control group are not to receive a spinosyn or any other flea control treatment. On days 0-29, each dog in test groups 2 and 3 is to be offered its daily feed containing spinosyn for a period of 1 hour. On days 30-37 all dogs will be given regular dog food, without spinosyn, or a physiologically acceptable derivative thereof […]

With spinosad the “percent reduction in live adult flea counts” value (“percent reduction” below) (Ctenocephalides felis; Group 2, 0.25 mg/kg daily oral) was 100%, the “efficacy (reduction in live adult flea counts)” value (Ctenocephalides felis; Group 3, 0.50 mg/kg daily oral days 0-29, day 37, after wash out period) was “over 98%” and the “percent reduction” value (Ctenocephalides felis; Group 3, 0.50 mg/kg daily oral) was 100%. For the same substance, the “efficacy (reduction in live adult flea counts)” value (Ctenocephalides felis; Group 4, 1.0 mg/kg daily oral days 0-29, day 37, after wash out period) was “over 98%”, the “percent reduction” value (Ctenocephalides felis; Group 4, 1.0 mg/kg daily oral) was 100% and the “efficacy (reduction in live adult flea counts)” value (C. felis; Group 2, 0.5 mg/kg daily feed formulation 1, by the 14-day comb count) was “over 90%”. The “efficacy (reduction in live adult flea counts)” value (C. felis; Group 3, 0.5 mg/kg daily feed formulation 2, by the 14-day comb count) was “over 90%”.
